Measurements published in paper PMC7016952, “Characterization of the Menin-MLL Interaction as Therapeutic Cancer Target” (Cancers, 2020).
pIC50: −log10 of the molar value.

Experiments:
[1] = target: CYP 2D6 (Homo sapiens, UniProt P10635); conditions: cited from earlier work
[2] = test system: MOLM-13 cells; assay: Proliferation inhibition, MOLM-13; type: cell-based, human
[3] = target: T1, menin-MLL interaction (Homo sapiens, UniProt O00255); parameters: method as in PMID 31253180; conditions: read-out: Potency IC50 Menin-MLL binding; TR-FRET; previously reported; cited from earlier work
T1 construct: recombinant full length, His-tagged menin
T1 sequence (O00255 1-610): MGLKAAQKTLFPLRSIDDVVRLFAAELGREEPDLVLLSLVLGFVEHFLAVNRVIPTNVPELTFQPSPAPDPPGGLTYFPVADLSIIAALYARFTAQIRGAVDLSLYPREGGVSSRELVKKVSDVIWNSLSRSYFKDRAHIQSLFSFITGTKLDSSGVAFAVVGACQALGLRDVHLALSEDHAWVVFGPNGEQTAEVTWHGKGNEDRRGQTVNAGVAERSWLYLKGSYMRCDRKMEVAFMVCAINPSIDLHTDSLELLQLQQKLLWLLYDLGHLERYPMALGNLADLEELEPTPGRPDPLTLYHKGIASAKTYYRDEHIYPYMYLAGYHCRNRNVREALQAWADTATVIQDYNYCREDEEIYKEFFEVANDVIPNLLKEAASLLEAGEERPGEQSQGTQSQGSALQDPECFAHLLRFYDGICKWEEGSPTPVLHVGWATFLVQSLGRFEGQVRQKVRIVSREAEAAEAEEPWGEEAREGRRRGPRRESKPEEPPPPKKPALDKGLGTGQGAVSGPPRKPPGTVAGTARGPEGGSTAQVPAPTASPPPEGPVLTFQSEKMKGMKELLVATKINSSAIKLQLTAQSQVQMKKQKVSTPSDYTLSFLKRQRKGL

[4] = test system: AR signaling pathway genes in VCaP tumor samples; assay: Ex vivo gene expression in VCaP xenografts; parameters: species or system mice; conditions: 52 days of treatment
Description: (§1) Total RNA was isolated using RNeasy-Plus Mini kit (Qiagen, Hilden, Germany). RNA (1 μg) was reverse transcribed using SuperScript III First-Strand Synthesis SuperMix (Life Technologies) and the generated cDNA was analyzed with commercial primers (Supplementary Materials Table S1) by qRT-PCR using TaqMan Fast Advanced Master Mix (Life Technologies). For the RNA-seq study, ZR-75-1, BT474, PANC-1, MiaPaCa-2, 22RV1, JMSU-1, DLD-1, SW1463, LoVo and G401 cells were treated with 5 µM BAY-155 or DMSO for 48 h prior to RNA extraction. After 48 h of 5 µM BAY-155 or DMSO treatment, MCF7, VCaP and LNCaP cells were stimulated for further 12 h with 0.1 nM of E2 (ß-Estradiol) or 1 nM R1881, respectively. MCF7, VCaP and LNCaP cells were cultured in starvation medium (containing 5 µM BAY-155 or DMSO) 6 h before stimulation. RNA was isolated using RNeasy-Plus Mini kit (Qiagen). The purified RNA was used for library preparation (Illumina, San Diego, CA, USA. TruSeq Stranded mRNA Kit) and the generated libraries were sequenced (Illumina, HiSeq2500 HTv4, SR, dual-indexing, 50 cycles).
(§2) Tumors were harvested, dissociated and total RNA was extracted using the TissueLyser (Qiagen, Hilden, Germany) together with RNeasy-Plus Mini kit according to the manufacturer protocol.

[5] = test system: T2, menin protein levels in VCaP cells; assay: Western blot of menin protein level; type: cell-based, human; conditions: Western blot
T2 construct: endogenous in cells; host or cells: VCaP

[6] = test system: MEIS1, MNDA and CD11b expression in MV4;11 and MOLM-13 xenografts; assay: Ex vivo gene expression in MV4;11 and MOLM-13 xenografts; parameters: species or system mice; conditions: 17 (MV4;11) or 11 (MOLM-13) days of treatment
Description: as §1, §2

[7] = test system: MCF7 cells; assay: RNA-seq after E2 stimulation, MCF7; type: cell-based, human
Description: as §1
(§3) RNA-seq reads were aligned to hg38 using STAR aligner. Protein-coding genes with more than 10 reads in more than three samples were used for the analysis (total samples N = 86; genes N = 13,003). DESeq2 was used to find genes differentially expressed upon treatment by the menin inhibitor in each cell line compared to DMSO or hormonal treatment (for MCF-7, LNCaP and VCaP cell lines). […] GSEA analysis was run on the pre-ranked list based on logFC in prostate (VCaP and LNCaP) and breast (MCF7) cell lines. Data are available at GEO under accession number GSE136272.

[8] = cited from earlier work
[9] = test system: VCaP cells; assay: RNA-seq after R1881 stimulation, VCaP; type: cell-based, human
Description: as §1, §3

[10] = cited from earlier work; remark: listed apart in the source
[11] = test system: ER signaling pathway genes in MCF7 tumor samples; assay: Ex vivo gene expression in MCF7 xenografts; parameters: species or system mice; conditions: 27 days of treatment
Description: as §1, §2

[12] = test system: MEIS1, MNDA and CD11b expression in MV4;11 and MOLM-13 cells; assay: qRT-PCR of hematopoietic differentiation genes; type: cell-based, human; conditions: four days of treatment, in comparison to MI-503
Description: as §1

CYP 2D6, sequence (P10635 whole entry): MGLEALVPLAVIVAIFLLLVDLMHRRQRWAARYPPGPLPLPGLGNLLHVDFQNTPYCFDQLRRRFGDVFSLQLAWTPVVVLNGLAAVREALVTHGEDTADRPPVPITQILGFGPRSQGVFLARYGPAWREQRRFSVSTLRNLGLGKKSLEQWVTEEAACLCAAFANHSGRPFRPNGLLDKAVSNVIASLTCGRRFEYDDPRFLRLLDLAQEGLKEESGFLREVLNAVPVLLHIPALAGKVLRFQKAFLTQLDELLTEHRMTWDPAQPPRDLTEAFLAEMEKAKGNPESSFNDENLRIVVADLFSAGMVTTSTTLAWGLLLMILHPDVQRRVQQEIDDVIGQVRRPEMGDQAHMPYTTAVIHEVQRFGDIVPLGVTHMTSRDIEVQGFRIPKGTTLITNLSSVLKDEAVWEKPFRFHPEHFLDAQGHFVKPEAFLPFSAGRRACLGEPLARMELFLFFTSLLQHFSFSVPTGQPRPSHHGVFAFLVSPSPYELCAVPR

Cc1c(CN2CCC3(CC2)CN(c2ncnc4sc(CC(F)(F)F)cc24)C3)ccc2c1cc(C#N)n2CC(N)=O [BAY-155]
pIC50 [1]: < 4.70 | fold improved proliferation inhibition vs MI-503 [2]: 6.3 fold | pIC50 [3]: 8.10 | FKBP5 and TMPRSS2 expression ex vivo [4]: no significant changes | menin protein levels [5]: reduce menin protein levels in a time- and concentration-dependent manner | MEIS1 expression ex vivo [6]: concentration-dependent and significant down-regulation | MNDA and CD11b expression ex vivo [6]: up-regulation | GSEA of estradiol (E2) up- and down-regulated gene sets ([7]; MCF7): slight reverse regulation | E2 down-regulated genes significantly changed ([7]; MCF7, 5 µM, E2): 13 genes | E2 up-regulated genes significantly changed ([7]; MCF7, 5 µM, E2): 26 genes | CLblood (metabolic stability in rat hepatocytes, as worded in text) [8]: 18.3 mL/min/kg | GSEA of androgen-regulated gene sets [9]: significant reversal of androgen-induced gene expression changes | genes down-regulated by androgen stimulation that were elevated ([9]; 5 µM, R1881): 182 genes | genes up-regulated by androgen stimulation that were repressed ([9]; 5 µM, R1881): 36 genes | Caco2 permeability Papp(A-B) ([10]; Caco-2, pH 7.2): 2.64 ×10⁻⁶ cm/s | Caco2 permeability efflux ratio ([10]; Caco-2): 6.4 | EGR3, GREB1 and PGR1 expression ex vivo [11]: no significant effects | CD11b and MNDA gene expression [12]: up-regulation | MEIS1 gene expression [12]: stronger expression down-regulation
